Assay results: patent US6465523B1, “4-substituted-3-substituted-amino-cyclobut-3-ene-1,2-diones and analogs thereof as novel potassium channel openers” (American Home Products, priority 1998, dated 2002)

Experiments:
Bladder Tissue = experiment: Smooth muscle (bladder) relaxing activity: inhibition of KCl-enhanced contractile activity of isolated rat bladder strips; type: cell-based, Sprague-Dawley rats; conditions: for Bladder Tissue, I = percent inhibition of contractile activity / IC50 / inhibition at 30 µM: rat bladder strips, additional 15 mM KCl; for Bladder Tissue, I = percent inhibition of contractile activity / inhibition at 30 µM: percent inhibition at 30 μM (footnote *); for IC50: 50% inhibition of pre-drug contractile activity; for Ratio Aorta IC50 / Bladder IC50: selectivity for bladder over aorta tissue, rat; for inhibition at 30 µM: read-out: Bladder Tissue, I = percent inhibition of contractile activity
Description: The smooth muscle (bladder) relaxing activity of the compounds of this invention was established in accordance with standard pharmaceutically accepted test procedures with representative compounds as follows:
Sprague-Dawley rats (150-200 g) are rendered unconscious by CO2 asphyxiation and then euthanized by cervical dislocation. The bladder is removed into warm (37° C.) physiological salt solution (PSS) of the following composition (mM): NaCl, 118.4; KCl, 4.7; CaCl2, 2.5; […]; NaHCO3, 24.9; KH2PO4, 1.2; glucose, 11.1; EDTA, 0.023; gassed with […]; pH 7.4. The bladder is opened and then cut into strips 1-2 mm in width and 7-10 mm in length. The strips are subsequently suspended in a 10 mL tissue bath under an initial resting tension of 1.5 g. The strips are held in place by two surgical clips one of which is attached to a fixed hook while the other is attached to an isometric force transducer. […] The carbachol is then washed out and the tissue allowed to relax to its resting level of activity. Following a further 30 min. period of recovery an additional 15 mM KCl are introduced into the tissue bath. This increase in KCl concentration results in a large increase in the amplitude of spontaneous contractions (and initiation of contractions in previously quiescent strips) superimposed upon a small increase in basal tone. Following stabilization of this enhanced level .of contractile activity, incremental increases in the concentration of test compound or vehicle are introduced into the tissue bath. Contractile activity is measured for each compoundor vehicle concentration during the last minute of a 30 minute challenge.
The isometric force developed by the bladder strips is measured using a […] to elicit 50% inhibition of pre-drug contractile activity (IC50 concentration) and is calculated from this concentra-tion-response curve.

Aorta Tissue = experiment: Smooth muscle (aorta) relaxing activity: inhibition of KCl-evoked contracture of isolated rat thoracic aorta rings; type: cell-based, Sprague-Dawley rats; conditions: 30-35 mM KCl contracture, 50% inhibition of pre-drug contractile force
Description: The smooth muscle (aorta) relaxing activity of the compounds of this invention was established in accordance with standard pharmaceutically accepted test procedures with representative compounds as follows:
Male Sprague-Dawley rats (150-200 g) are rendered unconscious by CO2 asphyxiation and then euthanized by cervical dislocation. The thoracic aorta is removed into warm (37 deg.C.) physiological salt solution (PSS) of the following composition (mM): NaCl; 118.4; KCl, 4.7; CaCl2, 2.5; MgSO4.7H2O, 1.2; NaHCO3, 24.9; KH2PO4, 1.2; glucose, 11.1; EDTA, 0.023; gassed with 95% O2/5% CO2; pH 7.4. The aorta is cleaned of fat and loose adventitia and cut into rings 3-4 mm in width. The rings are subsequently suspended between two stainless steel wire tissue holders in a 10 ml tissue bath. One wire tissue holder is attached to a fixed hook while the other is attached to an isometric force transducer. Resting tension is set at 1 g. The tissues are to recover for a period of 60 mins. prior to beginning the experiment. Tissues are challenged with PSS containing 25 mM KCl to elicit a contracture. The tissues are then washed repeatedly with fresh PSS over a period of 30 mins. and allowed to recover to baseline tension. PSS containing 30-35 mM KCl is then introduced into the tissue bath to evoke a contracture that is allowed to stabilize for not less than 45 minutes. (Other stimuli such as norepine-phrine, PGF2a, histamine, angiotensin II, endothelin or PSS containing 80 mM KCl may also be used to evoke a contracture as necessary). Increasing concentrations of test compound or vehicle are then added to the tissue bath in a cumulative fashion.
Isometric force development by the aortic rings is measured using a force transducer and recorded on a polygraph. The percentage inhibition of contractile force evoked by each concentration of a given test compound is used to generate a concentration-response curve. The concentration of test compound required to elicit 50% inhibition of pre-drug contractile force (IC50 concentration) is calculated from this dose-response curve. (Log concentration versus response curves are approximately linear between 20% and 80% of the maximum response. As such, the IC50 concentration of the drug is determined by linear regression analysis (where x=log concentration and y=% inhibition) of the data points in the 20% to 80% region of the curve]. The maximum percentage inhibition of contractile force evoked by a test compound is also recorded for concentrations of test compound < or = to 30 μM. Data collected from 2 animals are averaged for primary screens.

Row | IC50 (Bladder Tissue) [µM] | melting point | Compound | inhibition at 30 µM (Bladder Tissue) [%] | further results
1 | – | – | 3-(1,1-Dimethyl-2-phenyl-ethylamino)-4-(3-methoxy-phenyl)-cyclobut-3-ene-1,2-dione [Example 25] | – | Bladder Tissue, I = percent inhibition of contractile activity (Bladder Tissue): 1 = 30.35%
2 | 1.2 | 150 to 151 °C | COc1ccc(-c2c(NC(C)(C)Cc3ccccc3)c(=O)c2=O)cc1 [Example 1, 3-(1,1-Dimethyl-2-phenyl-ethylamino)-4-(4-methoxy-phenyl)-cyclobut-3-ene-1,2-dione] | – | Ratio Aorta IC50 / Bladder IC50 (Bladder Tissue): 2.71; IC50 (Aorta Tissue): 3.25 ± 0.35 µM
3 | 2.5 | 133 to 135 °C | CCC(C)(C)Nc1c(-c2ccc(OC)cc2)c(=O)c1=O [Example 2, 3-(1,1-Dimethyl-propylamino)-4-(4-methoxy-phenyl)-cyclobut-3-ene-1,2-dione] | – | Ratio Aorta IC50 / Bladder IC50 (Bladder Tissue): 15.1; IC50 (Aorta Tissue): 37.6 ± 6.05 µM
4 | 12 | 109 to 115 °C | COc1ccc(-c2c(N(C)C(C)C)c(=O)c2=O)cc1 [Example 3, 3-(Isopropyl-methyl-amino)-4-(4-methoxy-phenyl)-cyclobut-3-ene-1,2-dione] | – | Ratio Aorta IC50 / Bladder IC50 (Bladder Tissue): 3.85; IC50 (Aorta Tissue): 46.2 ± 7.8 µM
5 | 9.51 | 179 to 181 °C | COc1ccc(-c2c(NC(C)C(C)(C)C)c(=O)c2=O)cc1 (stereo not drawn) [Example 4, 3-(4-Methoxy-phenyl)-4-(1,2,2-trimethyl-propylamino)-cyclobut-3-ene-1,2-dione] | – | Ratio Aorta IC50 / Bladder IC50 (Bladder Tissue): 2.56; IC50 (Aorta Tissue): 24.2 ± 6.3 µM
6 | – | 220.2 to 222.3 °C | COc1ccc(-c2c(NCCc3cccc(C(F)(F)F)c3)c(=O)c2=O)cc1 [Example 5, 3-(4-Methoxy-phenyl)-4-[2-(3-trifluoromethyl-phenyl)-ethylamino]-cyclobut-3-ene-1,2-dione] | 9.75 | –
7 | 26.9 | 158.7 to 160.1 °C | COc1ccc(-c2c(N[C@H](C)c3ccccc3)c(=O)c2=O)cc1 [Example 6, (−)-3-(4-Methoxy-phenyl)-4-((R)-1-phenyl-ethylamino)-cyclobut-3-ene-1,2-dione] | – | –
8 | – | 215.4 to 216.2 °C | COc1ccc(-c2c(NCC(C)c3ccccc3)c(=O)c2=O)cc1 (stereo not drawn) [Example 7, 3-(4-Methoxy-phenyl)-4-(2-phenyl-propylamino)-cyclobut-3-ene-1,2-dione] | 7.4 | –
9 | 11.2 | 258.1 to 260.2 °C | COc1ccc(-c2c(NCCc3ccc(C(C)(C)C)cc3)c(=O)c2=O)cc1 [Example 8, 3-[2-(4-tert-Butyl-phenyl)-ethylamino]-4-(4-methoxy-phenyl)-cyclobut-3-ene-1,2-dione] | – | –
10 | – | – | CC(Nc1c(-c2ccc(C#N)cc2)c(=O)c1=O)C(C)(C)C (stereo not drawn) [Example 9, 4-[3,4-Dioxo-2-(1,2,2-trimethyl-propylamino)-cyclobut-1-enyl]benzonitrile] | 27.2 | –
11 | 15.6 | – | CC(Nc1c(-c2ccc(C(F)(F)F)cc2)c(=O)c1=O)C(C)(C)C (stereo not drawn) [Example 10, 3-(4-Trifluoromethyl-phenyl)-4-(1,2,2-trimethyl-propylamino)-cyclobut-3-ene-1,2-dione] | – | –
12 | – | 115.4 to 119 °C (dec.) | CCC(C)(C)Nc1c(-c2ccc(C(F)(F)F)cc2)c(=O)c1=O [Example 11, 4-(4Trifluoromethyl-phenyl)-3-(1,1-dimethyl-propylamino)-cyclobut-3-ene-1,2-dione] | 34.2 | –
13 | – | 152 to 155.9 °C (dec.) | CCC(C)(C)Nc1c(-c2cccnc2)c(=O)c1=O.Cl [Example 12, 3-(1,1-Dimethyl-propylamino)-4-(pyridin-3-yl)-cyclobut-3-ene-1,2-dione Hydrochloride] | 26 | –
14 | 16.2 | – | CC(=O)C(c1ccc(C(F)(F)F)cc1)c1c(NC(C)C(C)(C)C)c(=O)c1=O (stereo not drawn) [Example 21, 3-[2-Oxo-1-(4-trifluoromethyl-phenyl)-propyl]-4-(1,2,2-trimethyl-propylamino)-cyclobut-3-ene-1,2-dione] | – | –
15 | 25.7 | 210.6 to 211.3 °C | CC(Nc1c(-c2ccc(Br)cc2)c(=O)c1=O)C(C)(C)C (stereo not drawn) [Example 22, 3-(4-Bromo-phenyl)-4-(1,2,2-trimethyl-propylamino)-cyclobut-3-ene-1,2-dione] | – | –
16 | – | – | COc1ccc(Cc2c(NC(C)C(C)(C)C)c(=O)c2=O)cc1.COc1ccc(Cc2c(NC(C)C(C)(C)C)c(=O)c2=O)cc1.COc1ccc(Cc2c(NC(C)C(C)(C)C)c(=O)c2=O)cc1.COc1ccc(Cc2c(NC(C)C(C)(C)C)c(=O)c2=O)cc1.O (stereo not drawn) [Example 23, 3-(4-Methoxy-benzyl)-4-(1,2,2-trimethyl-propylamino)-cyclobut-3-ene-1,2-dione One-quarter Hydrate] | – | Bladder Tissue, I = percent inhibition of contractile activity (Bladder Tissue): 1 = 10.2%
17 | 15.9 | – | COc1ccc(C(C(C)=O)c2c(N(C(=O)OC(C)(C)C)C(C)C(C)(C)C)c(=O)c2=O)cc1 (stereo not drawn) [Example 24] | – | –
18 | – | – | CC(Nc1c(/C=C/c2ccc(Br)cc2)c(=O)c1=O)C(C)(C)C (stereo not drawn) [Example 26, 3-[(E)-2-(4-Bromo-phenyl)-vinyl]-4-(1,2,2-trimethyl-propylamino)-cyclobut-3-ene-1,2-dione] | 15.6 | –
19 | 2.94 | 240.2 to 241 °C | CC(Nc1c(/C=C/c2ccc(C#N)cc2)c(=O)c1=O)C(C)(C)C (stereo not drawn) [Example 27, 4-{(E)-2-[3,4-Dioxo-2-(1,2,2-trimethyl-propylamino)-cyclobut-1-enyl]-vinyl}-benzonitrile] | – | –
